Measured values as given in the supplement of paper PMC10307832.

Legend:
Experiment in all cases: relative viability (nuclei count vs DMSO), 5 days (fraction); higher = more cells survive
Fedratinib = compound: Cc1cnc(Nc2ccc(OCCN3CCCC3)cc2)nc1Nc1cccc(S(=O)(=O)NC(C)(C)C)c1 [Fedratinib]
Procedure, shortened: (§1)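 On vehicle-anchored 1536-well plates, lung cancer cell lines held overnight at 37 °C were pinned with five library-drug doses (not always all listed) spaced by √10. With no medium change over 5 days, they were then fixed, permeabilised and Hoechst-stained in one step and imaged at 4×. MetaXpress counted nuclei, and viability is the median across plates of treated-well over vehicle-well nuclei. Acceptance needed control CV below 25% and at least one doubling.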

GW-2580 = compound: COC1=CC=C(C=C1)COC2=C(C=C(C=C2)CC3=CN=C(N=C3N)N)OC [GW-2580]
Procedure, shortened: as §1

GW-2580 + Decitabine = compound: COC1=CC=C(C=C1)COC2=C(C=C(C=C2)CC3=CN=C(N=C3N)N)OC [GW-2580] + Nc1ncn([C@H]2C[C@H](O)[C@@H](CO)O2)c(=O)n1 [Decitabine] (partner 2 µM)
Procedure, shortened: (§2)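 One day after seeding in 1536-well plates, lung cancer cell lines were dosed by pin tool. Dosing was either single-drug or a fixed anchor-drug dose plus five library-drug doses (not always all listed) in √10 steps. After 5 days, nuclei were stained in one fix-and-stain step and counted on 4× images, and relative viability is the nuclei count of treated wells over that of vehicle wells, given as the median of duplicate plates.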

GW-2580 + Vorinostat = compound: COC1=CC=C(C=C1)COC2=C(C=C(C=C2)CC3=CN=C(N=C3N)N)OC [GW-2580] + O=C(CCCCCCC(=O)Nc1ccccc1)NO [Vorinostat] (partner 1 µM)
Procedure, shortened: as §2

For UMC-11, the relative viability (Fedratinib; 0.1 µM) was 0.914, the relative viability (Fedratinib; 0.3162 µM) was 0.894 and the relative viability (Fedratinib; 1 µM) was 0.67. It also gave a relative viability (GW-2580; 0.08 µM) of 1.05, a relative viability (GW-2580; 0.8 µM) of 1.11 and a relative viability (GW-2580; 2.53 µM) of 0.923. It also gave a relative viability (GW-2580; 8 µM) of 1.2, a relative viability (GW-2580 + Decitabine; first compound 0.08 µM) of 0.617 and a relative viability (GW-2580 + Decitabine; first compound 0.8 µM) of 0.424. The relative viability (GW-2580 + Decitabine; first compound 8 µM) was 0.586, the relative viability (GW-2580 + Vorinostat; first compound 0.08 µM) was 0.384 and the relative viability (GW-2580 + Vorinostat; first compound 0.8 µM) was 0.391. For the same cell line, the relative viability (GW-2580 + Vorinostat; first compound 2.53 µM) was 0.513 and the relative viability (GW-2580 + Vorinostat; first compound 8 µM) was 0.413.
